From patent publication US5624923A, “Tricyclic diazepine vasopressin antagonists and oxytocin antagonists” (priority 1995, dated 1997) come the findings set out here.

For experiment [1], the target named is T1, Rat Hepatic V1 Receptors (Rattus norvegicus, UniProt P30560).
T1 construct: Rat liver plasma membranes expressing the vasopressin V1 receptor subtypes; from tissue; host or cells: rat liver plasma membranes
The experiment in a line: Binding Assay to Rat Hepatic V1 Receptors. As to conditions: for IC50: rat liver membranes, read-out: V1 IC50; for inhibition at 10 µM: 2 h, rat.

The target of experiment [2] is T2, Rat Kidney Medullary V2 Receptors (Rattus norvegicus, UniProt Q00788).
T2 construct: Medullary tissues from rat kidneys are dissected out; from tissue; host or cells: rat kidney medulla membranes
T2 sequence (Q00788 whole entry): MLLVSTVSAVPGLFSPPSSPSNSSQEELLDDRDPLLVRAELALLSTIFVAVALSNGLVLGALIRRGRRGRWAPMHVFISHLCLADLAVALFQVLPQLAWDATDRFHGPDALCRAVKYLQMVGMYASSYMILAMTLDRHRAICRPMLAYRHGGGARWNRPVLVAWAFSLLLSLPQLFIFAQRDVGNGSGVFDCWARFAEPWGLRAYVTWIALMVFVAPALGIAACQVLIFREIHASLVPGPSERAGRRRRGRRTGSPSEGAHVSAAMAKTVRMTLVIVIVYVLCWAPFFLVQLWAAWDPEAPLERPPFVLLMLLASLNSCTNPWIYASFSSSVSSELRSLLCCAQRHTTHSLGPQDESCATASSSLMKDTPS
Description: Binding Assay to Rat Kidney Medullary V2 Receptors. As to conditions: for IC50: rat kidney medulla membranes, read-out: V2 IC50; for inhibition at 10 µM: rat. A digest of the protocol:
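Membranes were prepared from rat kidney medulla and stored in 50.0 mM Tris-HCl pH 7.4 with 0.2% BSA and 0.1 mM PMSF. Radioligand competition ran 120 min at bench temperature, with 1.0 μM unlabeled ligand defining nonspecific binding. Compounds were added in 50% DMSO; filtration, tritium scintillation counting, IC50 from competition analysis.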

The target of experiment [3] is T3, oxytocin receptors (Rattus norvegicus, UniProt P70536).
T3 construct: The uteri are dissected out, cleaned of fat and connective tissues; from tissue; host or cells: uterus of DES-treated female Sprague-Dawley rats
T3 sequence (P70536 1-388): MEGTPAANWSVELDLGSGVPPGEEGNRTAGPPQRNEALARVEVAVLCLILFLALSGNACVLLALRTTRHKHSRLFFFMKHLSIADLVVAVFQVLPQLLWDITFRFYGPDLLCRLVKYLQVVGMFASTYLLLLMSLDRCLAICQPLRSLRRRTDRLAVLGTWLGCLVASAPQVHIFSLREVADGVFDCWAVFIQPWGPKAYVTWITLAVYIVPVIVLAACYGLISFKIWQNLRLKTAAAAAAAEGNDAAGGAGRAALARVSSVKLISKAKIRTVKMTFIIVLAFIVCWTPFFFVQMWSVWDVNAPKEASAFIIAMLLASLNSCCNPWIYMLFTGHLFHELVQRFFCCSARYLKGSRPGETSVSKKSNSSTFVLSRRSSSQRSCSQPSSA
The experiment in a line: Oxytocin Receptor Binding. As to conditions: for IC50: 1.0 nM [3H]oxytocin; for inhibition at 10 µM: [3H]oxytocin. The procedure: Oxytocin Receptor Binding
Female Sprague-Dawley rats weighing approximately 200-250 g are injected intramuscularly (i.m.) with 0.3 mg/kg of body weight of diethylstilbestrol (DES). The rats are sacrificed 18 hours later under pentobarbital anesthesia. The uteri are dissected out, cleaned of fat and connective tissues and rinsed in 50 ml of normal saline. The tissue pooled from six rats is homogenized in 50 ml of […] Tris.HCl, containing 0.5 mM dithiothreitol and 1.0 mM EDTA, adjusted to pH 7.4, using a polytron at setting 6 with three passes of 10 sec each. The homogenate is passed through two (2) layers of cheesecloth and the filtrate centrifuged at 1000× g for 10 min. The clear supernatant is removed and recentrifuged at 165,000× g for 30 min. The resulting pellet containing the oxytocin receptors is resuspended in 50.0 mM Tris.HCl containing 5.0 mM MgCl2 at pH 7.4, to give a protein concentration of 2.5 mg/ml of tissue suspension. This preparation is used in subsequent binding assays with [^3 H]Oxytocin.
Binding of 3,5-[^3 H]Oxytocin ([^3 H]OT) to its receptors is done in microtiter plates using [^3 H]OT, at various concentrations, in an assay buffer of 50.0 mM Tris.HCl, pH 7.4 and containing 5.0 mM MgCl2, and a mixture of protease inhibitors: BSA, 0.1 mg; aprotinin, 1.0 mg; 1,10-phenanthroline, 2.0 mg; […], 10.0 mg; and PMSF, 0.3 mg per 100 ml of buffer solution. Non-specific binding is determined in the presence of 1.0 uM unlabeled OT. The binding reaction is terminated after 60 min , at 22° C. by rapid filtration through glass fiber filters using a Brandel® cell harvester (Biomedical Research and Development Laboratories, Inc., Gaithersburg, Md.). Competition experiments are conducted at equilibrium using 1.0 nM [^3 H]OT and varying the concentration of the displacing agents. The concentrations of agent displacing 50% of [^3 H]OT at its sites (IC50) are calculated by a computer assisted LUNDON-2 program (LUNDON SOFTWARE INC., Ohio, USA).

Experiment [4] has as its system Vasopressin V1. The experiment in a line: Vasopressin V1 Antagonist Activity in Conscious Rats (vasopressin vasopressor response). Type of experiment: in vivo, rat. A digest of the protocol:
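Conscious rats are restrained supine, and under local 2% procaine a PE 10/20 cannula is passed through the ventral caudal tail artery into the lower abdominal aorta. The caudal vein is cannulated for intravenous dosing. Blood pressure is recorded with a Statham P23Db transducer, and vasopressin injections are repeated after compound dosing. Percent antagonism is calculated against the pre-drug vasopressor response taken as 100%.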

T1 sequence (P30560 whole entry): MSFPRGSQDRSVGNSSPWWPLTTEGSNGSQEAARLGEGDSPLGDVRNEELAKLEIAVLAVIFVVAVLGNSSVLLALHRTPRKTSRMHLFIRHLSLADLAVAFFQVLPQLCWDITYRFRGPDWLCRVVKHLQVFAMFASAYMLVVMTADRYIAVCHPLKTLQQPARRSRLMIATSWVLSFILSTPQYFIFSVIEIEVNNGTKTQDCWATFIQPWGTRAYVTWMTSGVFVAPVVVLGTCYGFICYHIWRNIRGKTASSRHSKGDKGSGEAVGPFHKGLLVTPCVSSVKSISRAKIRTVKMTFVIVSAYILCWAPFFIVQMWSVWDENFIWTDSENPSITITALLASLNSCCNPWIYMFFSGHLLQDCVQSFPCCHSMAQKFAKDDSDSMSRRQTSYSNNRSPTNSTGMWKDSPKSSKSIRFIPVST

Consider `Cc1cccc(C(=O)Nc2ccc(C(=O)N3Cc4cccn4-c4ccccc43)cc2)c1C` [Example 21, N-[4-(pyrrolo[1,2-a]quinoxalin-5(4H)-ylcarbonyl)phenyl]-2,3-dimethyl-benzamide], for which the IC50 (usually the point on the concentration scale where inhibition reaches its midpoint) in experiment [1] came to 930 nM; in experiment [2] it was 87 nM; in experiment [3], 2450 nM. In addition, in experiment [3], the inhibition (usually the share of the control response that was lost under treatment) at 10 µM is 67%.
Take `Cc1ccccc1CC(=O)Nc1ccc(C(=O)N2Cc3cccn3-c3ccccc32)cc1` [Example 36, N-[4-(pyrrolo[1,2-a]quinoxalin-5(4H)-ylcarbonyl)phenyl]-2-methylbenzene-acetamide]: in experiment [1], the IC50 was determined as 100 nM. Besides, the IC50 in experiment [2] stood at 54 nM. Besides, in experiment [4] (30 mg/kg i.v.), the “Max. % Inhibition” value was determined as 71% and the “Time (of max. % inhibition)” value is given as 60 min. Further, in experiment [3], the IC50 was 2450 nM and the inhibition at 10 µM turned out to be 67%.
`Cc1cc(C(=O)N2Cc3cccn3Cc3ccccc32)ccc1NC(=O)c1ccccc1C` [Example 96, N-[4-(5H-pyrrolo[2,1-c][1,4]benzodiazepin-10(11H)-ylcarbonyl)-2-methylphenyl]-2-methylbenzamide]: the values for the IC50 in experiment [1], in experiment [2] and in experiment [3] were 56 nM, 11 nM and 1200 nM, respectively. In experiment [3], this compound registered an inhibition at 10 µM of 94%.
On to `O=C(Nc1ccc(C(=O)N2Cc3cccn3Cc3ccccc32)cc1)c1cccc(Cl)c1Cl` [Example 468, N-[4-(5H-pyrrolo[2,1-c][1,4]benzodiazepin-10(11H)-ylcarbonyl)phenyl]-2,3-dichlorobenzamide], for which the results for the IC50 in experiment [1], in experiment [2] and in experiment [3] were 27 nM, 29 nM and 260 nM, respectively. The “Max. % Inhibition” value in experiment [4] (10 mg/kg i.v.) was 68%. Also, the “Time (of max. % inhibition)” value in experiment [4] (10 mg/kg i.v.) is 30 min. Moreover, the inhibition at 10 µM in experiment [3] was found to be 96%.
Consider `Cc1ccccc1C(=O)Nc1ccc(C(=O)N2CCc3nncn3-c3ccccc32)cc1` [Example 486, N-[4-[(4,5-Dihydro-6H-[1,2,4]triazolo[4,3-a][1,5]-benzodiazepin-6-yl)carbonyl)phenyl]-2-methylbenzoate], for which the inhibition at 10 µM in experiment [1] worked out at 39%; in experiment [2], 77%; in experiment [3], 18%.
In the case of `O=C(c1ccc(NP(=O)(c2ccccc2)c2ccccc2)cc1)N1Cc2cccn2Cc2ccccc21` [Example 491, 10-[4-[(Diphenylphosphinyl)amino]benzoyl]-10,11-dihydro-5H-pyrrolo-[2,1-c][1,4]benzodiazepine], the inhibition at 10 µM in experiment [1] was 82%; in experiment [2], 83%; in experiment [3] it was 46%.
Take `O=Cc1ccc2n1Cc1ccccc1N(C(=O)c1ccc(NC(=O)c3ccc(Cl)cc3Cl)cc1)C2` [Example 580, 2,4-Dichloro-N-[4-[(3-formyl-5H-pyrrolo[2,1-c][1,4]benzodiazepin-10(11H)-yl)carbonyl]phenyl]benzamide]: the IC50 is 200 nM in experiment [1], 80 nM in experiment [2] and 2960 nM in experiment [3]. The compound also showed an inhibition at 10 µM in experiment [3] of 79%.
Consider `O=C(Nc1ccc(C(=O)N2Cc3cccn3Cc3ccccc32)cc1)C(Cl)c1ccccc1` (stereo not drawn) [Example 583, α-Chloro-N-[4-(5H-pyrrolo[2,1-c][1,4]benzodiazepin-10(11H)-ylcarbonyl)phenyl]benzeneacetamide], for which the IC50 in experiment [1] was determined as 54 nM; in experiment [2], 27 nM; in experiment [3], 4000 nM. The same compound registered an inhibition at 10 µM in experiment [3] of 61%.
Take `O=C(CCl)Nc1ccc(C(=O)N2Cc3cccn3Cc3ccccc32)cc1` [Example 589, 2-Chloro-N-[4-(5H-pyrrolo[2,1-c][1,4]benzodiazepin-10(11H) -ylcarbonyl)phenyl]acetamide]: the inhibition at 10 µM in experiment [1] stood at 91%; in experiment [2] it was 82%; in experiment [3], 79%. This compound showed an IC50 in experiment [3] of 2900 nM.
Take `O=C(CN1CCOCC1)N(Cc1ccccc1Cl)c1ccc(C(=O)N2Cc3cccn3Cc3ccccc32)cc1` [Example 591, N-[(2-Chlorophenyl)methyl]-N-[4-(5H-pyrrolo[2,1-c][1,4]benzodiazepin-10(11H) -ylcarbonyl)phenyl]-4-morpholineacetamide]: the inhibition at 10 µM was 45% in experiment [1], 64% in experiment [2] and 29% in experiment [3].
Regarding `CCOC(=O)c1ccc2n1Cc1ccccc1N(C(=O)c1ccc(NC(=O)c3ccc(Cl)cc3Cl)c(C)c1)C2` [Example 592, Ethyl 10-[4-[(2,4-dichlorobenzoyl)amino]-3-methylbenzoyl]-10,11-dihydro-5H-pyrrolo[2,1-c][1,4]benzodiazepine-3-carboxylate], the IC50 in experiment [1] is 3300 nM. Further, the IC50 in experiment [2] came to 240 nM. In experiment [4] (30 mg/kg i.v.), the “Max. % Inhibition” value stood at 37% and the “Time (of max. % inhibition)” value worked out at 90 min. For the same compound, the inhibition at 10 µM in experiment [3] is 41%.
`O=C(Nc1ccc(C(=O)N2Cc3ccc(C(=O)C(Cl)(Cl)Cl)n3Cc3ccccc32)cc1)c1ccc(Cl)cc1Cl` [Example 598, N-[4-[[3-(Trichloroacetyl)-5H-pyrrolo[2,1-c][1,4]benzodiazepin-10(11H) -yl]carbonyl]phenyl]-2,4-dichlorobenzamide]: the values for the inhibition at 10 µM in experiment [1], in experiment [2] and in experiment [3] were 58%, 93% and 2%, respectively.
In the case of `CN(C)Cc1ccc2n1Cc1ccccc1N(C(=O)c1ccc(NC(=O)c3ccc(Cl)cc3Cl)cc1)C2` [Example 664], the results for the IC50 in experiment [1], in experiment [2] and in experiment [3] were 120 nM, 48 nM and 1400 nM, respectively. This compound returned an inhibition at 10 µM in experiment [3] of 95%.
For the compound `O=C(Nc1ccc(C(=O)N2Cc3ccc(CN4CCCC4)n3Cc3ccccc32)cc1)c1ccc(Cl)cc1Cl` [Example 665, N-[4-[[3-(1-pyrrolidinylmethyl)-5H-pyrrolo[2,1-c][1,4]benzodiazepin-10(11H)-yl]carbonyl]phenyl)-2,4-dichlorobenzamide], the 50% inhibitory concentration (IC50) in experiment [1] was determined as 56 nM; in experiment [2], 39 nM; in experiment [3], 1000 nM. In experiment [3], this compound gave an inhibition at 10 µM of 97%.
`O=C(Nc1ccc(C(=O)N2Cc3ccc(CN4CCOCC4)n3Cc3ccccc32)cc1)c1ccc(Cl)cc1Cl` [Example 666, N-[4-[[3-(4-morpholinomethyl)-5H-pyrrolo[2,1-c][1,4]benzodiazepin-10(11H)-yl]carbonyl]phenyl]-2,4-dichlorobenzamide]: the IC50 in experiment [1] stood at 160 nM; in experiment [2] it was 13 nM; in experiment [3] it was 2100 nM. Also, the inhibition at 10 µM in experiment [3] worked out at 83%.
Consider `CCN(CC)Cc1ccc2n1Cc1ccccc1N(C(=O)c1ccc(NC(=O)c3ccc(Cl)cc3Cl)cc1)C2` [Example 667, N-[4-[[3-[(diethylamino)methyl]-5H-pyrrolo[2,1-c][1,4]benzodiazepin-10(11H)-yl]carbonyl]phenyl]-2,4-dichlorobenzamide], for which the IC50 in experiment [1] was 170 nM; in experiment [2], 13 nM; in experiment [3], 1600 nM. The inhibition at 10 µM in experiment [3] turned out to be 89%.
On to `CCOC(=O)c1ccc2c(c1)N(C(=O)c1ccc(NC(=O)c3ccccc3C)cc1)Cc1cccn1C2` [Example 676, Ethyl 10,11-Dihydro-10-[4-[(2-methylbenzoyl)amino]benzoyl]-5H-pyrrolo[2,1-c][1,4]benzodiazepin-8-carboxylate], for which the inhibition at 10 µM came to 41% in experiment [1], 89% in experiment [2] and 32% in experiment [3].
